Where “and” joins values, the source holds several entries; their conditions need not be identical. Equal entries are not always repeated. Toxic doses and inconclusive results are not listed.
Test system: L1210 leukemia ip in BDF1 mice, survival T/C
Test: NCI In Vivo Anticancer Drug Screen. Data for tumor model L1210 Leukemia (intraperitoneal) in B6D2F1 (BDF1) mice
Conditions: higher = longer survival
How it was run: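 Tumor was transplanted into mice, which were then dosed with test compound or vehicle alone. Survival was recorded for each group, and the treated figure was expressed relative to the control figure.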

[1] = endpoint: mean survival time, dose: 75.0 mg/kg/injection, schedule: Q01DX001 (ip), vehicle: other
[2] = endpoint: mean survival time, dose: 150.0 mg/kg/injection, schedule: Q01DX001 (ip), vehicle: other
[3] = endpoint: mean survival time, dose: 100.0 mg/kg/injection, schedule: Q01DX001 (ip), vehicle: carboxymethylcellulose (CMC)
[4] = endpoint: mean survival time, dose: 100.0 mg/kg/injection, schedule: Q01DX001 (ip), vehicle: saline
[5] = endpoint: mean survival time, dose: 200.0 mg/kg/injection, schedule: Q01DX001 (ip), vehicle: saline
[6] = endpoint: mean survival time, dose: 400.0 mg/kg/injection, schedule: Q01DX001 (ip), vehicle: saline
[7] = endpoint: mean survival time, dose: 100.0 mg/kg/injection, schedule: Q04DX003 (ip), vehicle: Klucel (hydroxypropylcellulose) (HPC)
[8] = endpoint: mean survival time, dose: 200.0 mg/kg/injection, schedule: Q04DX003 (ip), vehicle: Klucel (hydroxypropylcellulose) (HPC)
[9] = endpoint: mean survival time, dose: 400.0 mg/kg/injection, schedule: Q04DX003 (ip), vehicle: Klucel (hydroxypropylcellulose) (HPC)

`CC/C(C)=N/NS(C)(=O)=O` was tested. Which T/C [1] did it give?
Its T/C is 103 % of control.

And the T/C [2]?
Its T/C is 97 % of control.

How did the T/C (endpoint: mean survival time, dose: 100.0 mg/kg/injection, schedule: Q01DX001 (ip), vehicle: DMSO) turn out when `C=C(C)C(Br)=C(C)C` was run?
Its T/C is 96 % of control.

With `O=C1c2ccccc2C(=O)N1Cc1ncn[nH]1` as the molecule, how does the T/C (endpoint: mean survival time, dose: 100.0 mg/kg/injection, schedule: Q01DX001 (ip), vehicle: saline with Tween-80) read?
Its T/C is 100 % of control.

And the T/C (endpoint: mean survival time, dose: 200.0 mg/kg/injection, schedule: Q01DX001 (ip), vehicle: saline with Tween-80)?
The T/C was 96 % of control.

And the T/C (endpoint: mean survival time, dose: 400.0 mg/kg/injection, schedule: Q01DX001 (ip), vehicle: saline with Tween-80)?
The T/C was 91 % of control.

How did the T/C [3] turn out when `Oc1ccc(O)c(-c2ccccc2)c1` was run?
Its T/C is 93 % of control.

What about the T/C (endpoint: mean survival time, dose: 200.0 mg/kg/injection, schedule: Q01DX001 (ip), vehicle: carboxymethylcellulose (CMC)) of the same molecule?
The T/C was 101 % of control.

Which results are given for `CC(=O)CC(=O)C(F)(F)F.[O]=[U]=[O]`?
T/C (endpoint: mean survival time, dose: 0.37 mg/kg/injection, schedule: Q01DX009 (ip), vehicle: gum acacia): 99 % of control; T/C (endpoint: mean survival time, dose: 0.75 mg/kg/injection, schedule: Q01DX009 (ip), vehicle: gum acacia): 101 % of control; T/C (endpoint: mean survival time, dose: 1.5 mg/kg/injection, schedule: Q01DX009 (ip), vehicle: gum acacia): 101 % of control; T/C (endpoint: mean survival time, dose: 6.25 mg/kg/injection, schedule: Q01DX005 (ip), vehicle: gum acacia): 99 % of control; T/C (endpoint: mean survival time, dose: 6.25 mg/kg/injection, schedule: Q01DX009 (ip), vehicle: gum acacia): 98 % of control; T/C (endpoint: mean survival time, dose: 12.5 mg/kg/injection, schedule: Q01DX005 (ip), vehicle: gum acacia): 86 % of control; T/C (endpoint: mean survival time, dose: 12.5 mg/kg/injection, schedule: Q04DX002 (ip), vehicle: gum acacia): 104 % of control; T/C (endpoint: mean survival time, dose: 25.0 mg/kg/injection, schedule: Q04DX002 (ip), vehicle: gum acacia): 87 % of control

Which results are given for `OC1COC(n2cnc3c(=S)nc[nH]c32)CC1O` (stereo not drawn)?
T/C (endpoint: mean survival time, dose: 5.0 mg/kg/injection, schedule: Q01DX001 (ip), vehicle: saline): 100 % of control; T/C (endpoint: mean survival time, dose: 10.0 mg/kg/injection, schedule: Q01DX001 (ip), vehicle: saline): 103 % of control; T/C (endpoint: mean survival time, dose: 20.0 mg/kg/injection, schedule: Q01DX001 (ip), vehicle: saline): 100 % of control; T/C (endpoint: mean survival time, dose: 40.0 mg/kg/injection, schedule: Q01DX001 (ip), vehicle: saline): 95 % of control; T/C [4]: 107 % of control; T/C [5]: 108 % of control; T/C [6]: 124 % of control

How did the T/C (endpoint: mean survival time, dose: 100.0 mg/kg/injection, schedule: Q04DX002 (ip), vehicle: Klucel (hydroxypropylcellulose) (HPC)) turn out when `Cc1ccnc(NC(=O)Nc2ccc(C)cc2[N+](=O)[O-])c1` was run?
The T/C was 99 % of control.

And the T/C (endpoint: mean survival time, dose: 200.0 mg/kg/injection, schedule: Q04DX002 (ip), vehicle: Klucel (hydroxypropylcellulose) (HPC))?
Its T/C is 105 % of control.

And the T/C (endpoint: mean survival time, dose: 400.0 mg/kg/injection, schedule: Q04DX002 (ip), vehicle: Klucel (hydroxypropylcellulose) (HPC))?
The T/C was 115 % of control.

What does the source list for `CCSC(C(O)C(O)C(O)C(O)CO)n1cnc2c(=S)nc[nH]c21` (stereo not drawn)?
T/C [4]: 105 % of control; T/C (endpoint: mean survival time, dose: 100.0 mg/kg/injection, schedule: Q04DX003 (ip), vehicle: saline): 96 % of control; T/C [5]: 105 % of control; T/C (endpoint: mean survival time, dose: 200.0 mg/kg/injection, schedule: Q04DX003 (ip), vehicle: saline): 100 % of control; T/C [6]: 103 % of control; T/C (endpoint: mean survival time, dose: 400.0 mg/kg/injection, schedule: Q04DX003 (ip), vehicle: saline): 96 % of control

With `CC(=O)[O][Pb]([CH3])([CH3])[CH3]` as the molecule, how does the T/C (endpoint: mean survival time, dose: 5.0 mg/kg/injection, schedule: Q01DX001 (ip), vehicle: carboxymethylcellulose (CMC)) read?
Its T/C is 110 % of control.

What about the T/C (endpoint: mean survival time, dose: 10.0 mg/kg/injection, schedule: Q01DX001 (ip), vehicle: carboxymethylcellulose (CMC)) of the same molecule?
Its T/C is 103 % of control.

With `CCOC(=O)C(C#N)C(=N)C1CC(C)(C)OC1=O` (stereo not drawn) as the molecule, how does the T/C [1] read?
Its T/C is 101 % of control.

What about the T/C [2] of the same molecule?
Its T/C is 106 % of control.

Which results are given for `Cc1cc(NS(=O)(=O)c2ccccc2)c2c(c1NS(=O)(=O)c1ccccc1)CC=CC2`?
T/C (endpoint: mean survival time, dose: 100.0 mg/kg/injection, schedule: Q01DX009 (ip), vehicle: Klucel (hydroxypropylcellulose) (HPC)): 103 % of control; T/C [7]: 103 % of control; T/C (endpoint: mean survival time, dose: 200.0 mg/kg/injection, schedule: Q01DX009 (ip), vehicle: Klucel (hydroxypropylcellulose) (HPC)): 100 % of control; T/C [8]: 95 % of control; T/C (endpoint: mean survival time, dose: 400.0 mg/kg/injection, schedule: Q01DX009 (ip), vehicle: Klucel (hydroxypropylcellulose) (HPC)): 111 % of control; T/C [9]: 94 % of control

`CC[CH2][Sn]([CH2]CC)([CH2]CC)[CH2]CC` was tested. Which T/C (endpoint: mean survival time, dose: 50.0 mg/kg/injection, schedule: Q01DX001 (ip), vehicle: carboxymethylcellulose (CMC)) did it give?
The T/C was 95 % of control.

What about the T/C [3] of the same molecule?
Its T/C is 86 % of control.

How did the T/C [7] turn out when `O=C1CCC(NC(=O)C(F)(F)F)C(=O)O1` (stereo not drawn) was run?
Its T/C is 101 % of control.

And the T/C [8]?
Its T/C is 94 % of control.

And the T/C [9]?
Its T/C is 92 % of control.

Which results are given for `O=NN(CCCl)C(=O)NC1CCC(=O)NC1=O` (stereo not drawn)?
T/C (endpoint: mean survival time, dose: 0.5 mg/kg/injection, schedule: Q01DX001 (ip), vehicle: other): 104 % of control; T/C (endpoint: mean survival time, dose: 1.0 mg/kg/injection, schedule: Q01DX001 (ip), vehicle: other): 106 % of control; T/C (endpoint: mean survival time, dose: 2.0 mg/kg/injection, schedule: Q01DX001 (ip), vehicle: other): 118 % of control; T/C (endpoint: mean survival time, dose: 5.5 mg/kg/injection, schedule: Q01DX001 (ip), vehicle: other): 172 % of control; T/C (endpoint: mean survival time, dose: 6.0 mg/kg/injection, schedule: Q01DX001 (ip), vehicle: other): 203 % of control; T/C (endpoint: mean survival time, dose: 8.0 mg/kg/injection, schedule: Q01DX001 (ip), vehicle: other): 246 % of control; T/C (endpoint: mean survival time, dose: 11.0 mg/kg/injection, schedule: Q01DX001 (ip), vehicle: other): 300 % of control; T/C (endpoint: mean survival time, dose: 12.0 mg/kg/injection, schedule: Q01DX001 (ip), vehicle: other): 292 % of control; T/C (endpoint: mean survival time, dose: 16.0 mg/kg/injection, schedule: Q01DX001 (ip), vehicle: other): 315 % of control and 326 % of control; T/C (endpoint: mean survival time, dose: 22.0 mg/kg/injection, schedule: Q01DX001 (ip), vehicle: other): 340 % of control; T/C (endpoint: mean survival time, dose: 24.0 mg/kg/injection, schedule: Q01DX001 (ip), vehicle: other): 220 % of control; T/C (endpoint: mean survival time, dose: 33.0 mg/kg/injection, schedule: Q01DX001 (ip), vehicle: other): 340 % of control; T/C (endpoint: mean survival time, dose: 36.0 mg/kg/injection, schedule: Q01DX001 (ip), vehicle: other): 93 % of control; T/C (endpoint: mean survival time, dose: 44.0 mg/kg/injection, schedule: Q01DX001 (ip), vehicle: other): 295 % of control; T/C (endpoint: median survival time, dose: 0.63 mg/kg/injection, schedule: Q01DX001 (ip), vehicle: other): 106 % of control; T/C (endpoint: median survival time, dose: 0.63 mg/kg/injection, schedule: Q01DX001 (ip), vehicle: saline): 110 % of control; T/C (endpoint: median survival time, dose: 0.63 mg/kg/injection, schedule: Q01DX001 (iv), vehicle: other): 103 % of control; T/C (endpoint: median survival time, dose: 0.63 mg/kg/injection, schedule: Q01DX001 (iv), vehicle: saline): 108 % of control; T/C (endpoint: median survival time, dose: 1.25 mg/kg/injection, schedule: Q01DX001 (ip), vehicle: other): 116 % of control; T/C (endpoint: median survival time, dose: 1.25 mg/kg/injection, schedule: Q01DX001 (ip), vehicle: saline): 120 % of control; T/C (endpoint: median survival time, dose: 1.25 mg/kg/injection, schedule: Q01DX001 (iv), vehicle: other): 118 % of control; T/C (endpoint: median survival time, dose: 1.25 mg/kg/injection, schedule: Q01DX001 (iv), vehicle: saline): 106 % of control; T/C (endpoint: median survival time, dose: 2.5 mg/kg/injection, schedule: Q01DX001 (iv), vehicle: other): 122 % of control; T/C (endpoint: median survival time, dose: 2.5 mg/kg/injection, schedule: Q01DX001 (iv), vehicle: saline): 118 % of control; T/C (endpoint: median survival time, dose: 5.0 mg/kg/injection, schedule: Q01DX001 (ip), vehicle: other): 227 % of control; T/C (endpoint: median survival time, dose: 5.0 mg/kg/injection, schedule: Q01DX001 (ip), vehicle: saline): 193 % of control; T/C (endpoint: median survival time, dose: 5.0 mg/kg/injection, schedule: Q01DX001 (iv), vehicle: other): 151 % of control; T/C (endpoint: median survival time, dose: 5.0 mg/kg/injection, schedule: Q01DX001 (iv), vehicle: saline): 150 % of control; T/C (endpoint: median survival time, dose: 10.0 mg/kg/injection, schedule: Q01DX001 (ip), vehicle: other): 600 % of control; T/C (endpoint: median survival time, dose: 10.0 mg/kg/injection, schedule: Q01DX001 (ip), vehicle: saline): 598 % of control; T/C (endpoint: median survival time, dose: 10.0 mg/kg/injection, schedule: Q01DX001 (iv), vehicle: other): 290 % of control; T/C (endpoint: median survival time, dose: 10.0 mg/kg/injection, schedule: Q01DX001 (iv), vehicle: saline): 253 % of control; T/C (endpoint: median survival time, dose: 20.0 mg/kg/injection, schedule: Q01DX001 (ip), vehicle: other): 550 % of control; T/C (endpoint: median survival time, dose: 20.0 mg/kg/injection, schedule: Q01DX001 (ip), vehicle: saline): 596 % of control; T/C (endpoint: median survival time, dose: 20.0 mg/kg/injection, schedule: Q01DX001 (iv), vehicle: other): 599 % of control; T/C (endpoint: median survival time, dose: 20.0 mg/kg/injection, schedule: Q01DX001 (iv), vehicle: saline): 600 % of control; T/C (endpoint: median survival time, dose: 40.0 mg/kg/injection, schedule: Q01DX001 (ip), vehicle: other): 101 % of control; T/C (endpoint: median survival time, dose: 40.0 mg/kg/injection, schedule: Q01DX001 (ip), vehicle: saline): 104 % of control

Which T/C [4] does the source give for `BrCc1nc2ccccc2[nH]1` here?
The T/C was 95 % of control.

What about the T/C [5] of the same molecule?
Its T/C is 101 % of control.

And the T/C [6]?
The T/C was 107 % of control.

Reference: PubChem BioAssay AID248 (DTP/NCI, 2004)
